The values below come from article PMC4286809, “Crystallographic and spectroscopic snapshots reveal a dehydrogenase in action” (Nature Communications, 2015).

Bounds are passed on as bounds.

The target in data set [1] is T1, 2-aminomuconate-6-semialdehyde dehydrogenase (AMSDH) (Pseudomonas fluorescens, UniProt Q83V33).
T1 construct: gene nbaE
T1 sequence (Q83V33 1-500): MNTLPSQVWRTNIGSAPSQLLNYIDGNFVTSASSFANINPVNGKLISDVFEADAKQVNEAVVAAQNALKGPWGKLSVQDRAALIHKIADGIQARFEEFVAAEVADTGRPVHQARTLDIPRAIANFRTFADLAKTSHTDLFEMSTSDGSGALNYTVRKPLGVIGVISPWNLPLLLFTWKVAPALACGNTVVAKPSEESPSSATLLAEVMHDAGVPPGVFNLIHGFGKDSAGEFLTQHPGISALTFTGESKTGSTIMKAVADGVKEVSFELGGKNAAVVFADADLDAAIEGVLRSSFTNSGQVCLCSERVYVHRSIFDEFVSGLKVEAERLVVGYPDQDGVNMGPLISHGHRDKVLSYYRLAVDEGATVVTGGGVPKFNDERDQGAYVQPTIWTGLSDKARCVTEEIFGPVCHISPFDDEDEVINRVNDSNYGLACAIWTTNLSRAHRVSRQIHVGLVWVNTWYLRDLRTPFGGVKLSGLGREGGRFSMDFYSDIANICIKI
The experiment in a line: crystal structure of co-crystallized binary complex ([…] Å). Type of data set: binding.

Data set [2] has as its target T2, 2-aminomuconate-6-semialdehyde dehydrogenase (AMSDH) (Pseudomonas fluorescens, UniProt Q83V33, R464A).
T2 construct: gene nbaE
The experiment in a line: steady-state kinetics; substrate inhibition Ki (Km […]). Type of data set: biochemical.

The target of data set [3] is T3, 2-aminomuconate-6-semialdehyde dehydrogenase (AMSDH) (Pseudomonas fluorescens, UniProt Q83V33, R120A).
T3 construct: gene nbaE
T3 sequence (Q83V33 1-500 R120A): T1 sequence (Q83V33 1-500)
The experiment in a line: steady-state kinetics (Km, lower bound). Type of data set: biochemical.

The target of data set [4] is T4, 2-aminomuconate-6-semialdehyde dehydrogenase (AMSDH) (Pseudomonas fluorescens, UniProt Q83V33, E268A).
T4 construct: gene nbaE
T4 sequence (Q83V33 1-500 E268A): T1 sequence (Q83V33 1-500)
Put plainly: crystal structures of thiohemiacetal (4OU2) and thioacyl (4OUB) adducts; ESI mass spectrometry; absorption titration. Type of data set: binding.

Substrate in data set [5]: O=C/C=C/C=C(/O)C(=O)O
The experiment in a line: purified protein. It is filed as biochemical, Pseudomonas fluorescens. To be noted: NAD+ active site; bifurcated hydrogen bonds with Arg120 and Arg464; C6 becomes covalently bound to Cys302 in the later thioacyl intermediate (4NPI).

Data set [6] concerns the molecule itself. The experiment in a line: crystal structure; wild-type AMSDH, ligand-free, with NAD+, with NAD+ and 2-AMS or 2-HMS, and as thioacyl intermediate; space group P212121; four polypeptides per asymmetric unit.

Take `NC(=O)c1ccc[n+]([C@@H]2O[C@H](COP(=O)([O-])OP(=O)(O)OC[C@H]3O[C@@H](n4cnc5c(N)ncnc54)[C@H](O)[C@@H]3O)[C@@H](O)[C@H]2O)c1` [NAD+, NAD^+]: in data set [1], the “crystal structure of co-crystallized binary complex (2.00 Å)” value is “an NAD^+ molecule is present in an extended, anti-conformation in the amino-terminal, co-substrate-binding domain of each monomer”.
`O=C/C=C/C=C(/O)C(=O)O` [2-HMS, 2-hydroxymuconate-6-semialdehyde]: in data set [2], the Ki was ~6 µM. Further, the Km in data set [3] is > 446 µM. The “crystal structures of thiohemiacetal (4OU2) and thioacyl (4OUB) adducts; ESI mas” value in data set [4] is “a continuous electron density between Cys302-SG and 2-HMS-C6 is observed”.

B1: 2-aminomuconate-6-semialdehyde dehydrogenase from Pseudomonas fluorescens, wild type (enzyme, UniProt Q83V33 1-500, looked up)
chain: T1 sequence (Q83V33 1-500)
notes: 2-aminomuconate-6-semialdehyde dehydrogenase (AMSDH), Pseudomonas fluorescens; also called AMSDH; wild-type AMSDH; source: E. coli overexpression system, purified
With B1, in data set [5], the Michaelis-Menten constant (Km) was determined as 10.4 ± 0.2 µM. Moreover, in data set [6], the “stoichiometry N” value was found to be 4.

What is called Km is the substrate concentration at which the rate is half of its maximum. In general, stoichiometry N refers to the number of molecules, sites or subunits per partner or assembly.
